Test results as given in article PMC4664966, “Discovery and characterization of novel inhibitors of the sodium-coupled citrate transporter (NaCT or SLC13A5)” (Scientific Reports, 2015).

Legend:
HEK-293-derived cells = experiment: Cell viability, CellTiter-glo, HEK-293-derived cells; set-up: species or system human; conditions: HEK-293-derived cell-based assay conditions
Method: For cell viability, cells are incubated with compound for 90 minutes at 37 °C. Following this incubation, 25 μL Cell Titer-Glo (Promega) was added to the plates which were then analyzed on the Envision (luminescence).

Stability in assay media = format: in vitro ADME; conditions: read-out: t1/2 in assay media
[1] = Passive permeability, MDCK-LE cell monolayer; format: in vitro ADME; conditions: dog, MDCK; read-out: Papp (passive permeability)
Method: Passive permeability was assessed using MDCK-LE cell monolayer as described previously in Di et al., (2011)[44].

NaCT (SLC13A5) = NaCT (SLC13A5) (Homo sapiens, UniProt Q86YT5); experiment: Inhibition of citrate uptake in HEKNaCT cells; format: cell-based; conditions: geometric mean of at least 3 replicates
Method: HEK-293 cells stably transfected with the human sodium Citrate transporter SLC13A5 or transiently transfected with the human SLC13A2 or SLC13A3 transporter were removed from the flasks with dissociation buffer and re-suspended in an equal volume of growth media (DMEM, High Glucose supplemented with 10% heat inactivated fetal bovine serum and 500 μg/ml Geneticin). For the transient transfections, Geneticin was eliminated from the media. Cell suspensions were centrifuged at 1,000 rpm for approximately 5 minutes. Resulting cell pellets were re-suspended in growth media and placed in a 37 °C water bath for approximately 10 minutes prior to a final spin at 1,000 rpm. […] Cell suspensions were counted and the concentration adjusted as needed with assay buffer to 2e[6] viable cells /mL. 20 μL of cell suspension were added to 384-well cyotstar-T plates followed by the addition of 5 μL of 10× concentration of compound. […] After substrate addition, the uptake of radioactivity was monitored on Perkin Elmer Microbeta plate reader. Data from reads between 45–90 minutes was used to assess the ability of test compounds to inhibit the uptake of citric or succinic acid.

[2] = biological target: T1, NaCT in cryopreserved human hepatocytes (Homo sapiens, UniProt Q86YT5); experiment: Inhibition of citrate uptake in cryopreserved human hepatocytes; format: cell-based; conditions: geometric mean of at least 3 replicates
T1 construct: the transporter was in its native environment, we used cryopreserved human hepatocytes; endogenous in cells; host or cells: cryopreserved human hepatocytes

HEKNaCT cells [3] = experiment: Stability in HEKNaCT cells; format: in vitro ADME, human; conditions: data not shown
[4] = Stability in human hepatocytes; format: in vitro ADME; conditions: metabolically competent human hepatocytes
human hepatocytes = experiment: Incorporation of [14C]-citrate into triglycerides by human hepatocytes; format: cell-based; conditions: radiolabeled citrate for 24 hours
Method: Incorporation of [^14C]-citrate into triglycerides by human hepatocytes was measured using the same procedure as above except cells were incubated with the radioactive citrate for 24 hours. Subsequently, the media was aspirated and 100 μL of isopropyl alcohol:THF (9:1) was added. The plate was shaken for 15 minutes, centrifuged at 3000 revolutions per minute for 5 minutes, and 50 μL of supernatant from each well was applied per TLC lane (Whatman LK6D Silica Gel Plates). Radiolabeled lipids were resolved using a 2-solvent system: Solvent 1 contained a 100:100:100:40:36 mixture of ethyl acetate:isopropyl alcohol:CHCl3:MeOH:0.25% KCl and Solvent 2 a 70:27:3 hexane:diethyl ether:acetic acid mixture. The TLC plate was dried under nitrogen for 30 minutes and [^14C]-standards added to a vacant lane. Bands were visualized and quantitated using a Molecular Dynamics’ Storm 860 PhosphorImager system following 18–36 hours exposure to a Phosphorimager screen.

[5] = Intra-/extracellular unbound concentration ratio (Kpuu) in human hepatocytes; format: in vitro ADME; conditions: cryopreserved hepatocytes, ratio of free intracellular and media concentration after 1 h incubation at 1 μM, geometric mean of 3 replicates ± SD
Method: (§1) kpuu values were determined by measuring total cell and media concentrations corrected for their respective fraction unbound. Detailed methods to determine intra- and extracellular concentrations of compound in the HEKNaCT cells and human hepatocytes will be the subject of a separate manuscript that is under preparation. […]
(§2) Intra- and extracellular concentrations of compound in cellular assays. kpuu values were determined by measuring total cell and media concentrations corrected for their respective […]
(§3) fraction unbound. […]
(§4) The solution was heated to reflux until the total volume was reduced to ~25 mL.
(§5) Hexane (25 mL) was added and the mixture was brought back to reflux than allowed to slowly cool to room temperature. After standing at room temperature for 16 h, the resulting suspension was filtered and dried under high vacuum to yield (S)-2-(4-(tert-butyl)phenethyl)-2-hydroxysuccinic acid (3) as a white solid. The filtrate was allowed to stand at room temperature for 4 days. The solvent evaporated to ~15 mL and large, colorless crystals formed.
(§6) X-ray analysis. Data collection was performed on a Bruker APEX diffractometer at room temperature. Data collection consisted of 3 omega scans and low angle and three at high angle; each with 0.5 step. In addition, 2 phi scans were collected to improve the quality of the […]

HEKNaCT cells [6] = experiment: OCR and ECAR measurements in HEKNaCT cells incubated with citrate (Seahorse); format: cell-based, human; conditions: 30 μM compound
Method: HEKNaCT cells were plated at 12,000 cells/well onto a poly-d-lysine coated XF96 plate (Sigma, Seahorse Biosciences). Cells were plated in culture media containing HG DMEM, 10% FBS, 2 mM glutamine, 1 mM pyruvate, 0.5 mg/mL Geneticin, and 1% penicillin/streptomycin (Life Technologies) and incubated overnight at 37 °C. The following day, the media was changed to Seahorse Biosciences assay medium (Seahorse Biosciences) supplemented with 10 mM glucose and 2 mM pyruvate (Sigma). The plate was pre-incubated for 1 hour in a 37 °C air incubator. […]

[7] = Intra-/extracellular unbound concentration ratio (Kpuu) in HEKNaCT cells; format: in vitro ADME; conditions: human, ratio of free intracellular and media concentration after 1 h incubation at 1 μM, geometric mean of 3 replicates ± SD
Method: as §1, §2, §3, §4, §5, §6

NaDC1 (SLC13A2) = biological target: T2, NaDC1 (SLC13A2) (Homo sapiens, UniProt Q13183); experiment: Inhibition of citrate or succinate uptake in HEKNaDC1 cells; format: cell-based; conditions: compound 4: mean of 2 replicates
T2 construct: host or cells: HEK-293, transient (Fugene HD)
T2 sequence (Q13183 1-592): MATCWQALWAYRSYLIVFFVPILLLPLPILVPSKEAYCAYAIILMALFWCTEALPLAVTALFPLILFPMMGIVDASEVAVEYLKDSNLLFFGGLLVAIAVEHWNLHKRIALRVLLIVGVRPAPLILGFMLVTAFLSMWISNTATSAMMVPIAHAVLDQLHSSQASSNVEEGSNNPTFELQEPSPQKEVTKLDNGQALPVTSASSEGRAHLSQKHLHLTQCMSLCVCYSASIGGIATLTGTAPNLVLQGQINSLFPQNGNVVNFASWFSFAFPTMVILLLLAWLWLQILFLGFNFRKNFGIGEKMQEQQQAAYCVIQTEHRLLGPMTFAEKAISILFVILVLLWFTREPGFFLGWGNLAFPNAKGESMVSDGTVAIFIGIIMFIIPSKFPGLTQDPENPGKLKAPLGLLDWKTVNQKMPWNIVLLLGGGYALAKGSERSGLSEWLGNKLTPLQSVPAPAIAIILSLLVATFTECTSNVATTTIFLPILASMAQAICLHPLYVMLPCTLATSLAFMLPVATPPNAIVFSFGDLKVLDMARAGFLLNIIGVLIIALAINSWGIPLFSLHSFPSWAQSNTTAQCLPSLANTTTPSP
Excerpt: (§7) Protocols to generate the stable cell line overexpressing NaCT or cell transfection with SLC13A2 or SLC13A3 can be found in the supporting information. HEK-293 cells stably transfected with the human sodium Citrate transporter SLC13A5 or transiently transfected with the human SLC13A2 or SLC13A3 transporter were removed from the flasks with dissociation buffer and re-suspended in an equal volume of growth media (DMEM, High Glucose supplemented with 10% heat inactivated fetal bovine serum and 500 μg/ml Geneticin). For the transient transfections, Geneticin was eliminated from the media. Cell suspensions were centrifuged at 1,000 rpm for approximately 5 minutes. Resulting cell pellets were re-suspended in growth media and placed in a 37 °C water bath for approximately 10 minutes prior to a final spin at 1,000 rpm. Following this spin the resulting cell pellets were re-suspended in assay buffer, 142 mM NaCl (or 142 mM choline chloride), 5 mM KCl, 1.2 mM MgSO4, 1.5 mM CaCl, 5 mM glucose and 25 mM HEPES pH 7.4. Cell suspensions were counted and the concentration adjusted as needed with assay buffer to 2e[6] viable cells /mL. 20 μL of cell suspension were added to 384-well cyotstar-T plates followed by the addition of 5 μL of 10× concentration of compound. Cells and compound were incubated at 37 °C for approximately 30 minutes prior to the addition of 25 μL of 300 μM citric acid (16 μM radiolabeled [^14C]-citric acid and 284 μM cold citric acid) to make a 150 μM final concentration of citric acid or 21 μM [^14C]-succinic acid. After substrate addition, the uptake of radioactivity was monitored on Perkin Elmer Microbeta plate reader. Data from reads between 45–90 minutes was used to assess the ability of test compounds to inhibit the uptake of citric or succinic acid. […]
(§8) were plated, and incubated for 48 hours. Following the incubation, NaDC1 and NaDC3 assays were executed identical to the procedure for NaCT. […]
(§9) The solution was heated to reflux until the total volume was reduced to ~25 mL. […]

NaDC3 (SLC13A3) = biological target: T3, NaDC3 (SLC13A3) (Homo sapiens, UniProt Q8WWT9); experiment: Inhibition of citrate or succinate uptake in HEKNaDC3 cells; format: cell-based; conditions: compound 4: mean of 2 replicates
T3 construct: host or cells: HEK-293, transient (Fugene HD)
T3 sequence (Q8WWT9 1-602): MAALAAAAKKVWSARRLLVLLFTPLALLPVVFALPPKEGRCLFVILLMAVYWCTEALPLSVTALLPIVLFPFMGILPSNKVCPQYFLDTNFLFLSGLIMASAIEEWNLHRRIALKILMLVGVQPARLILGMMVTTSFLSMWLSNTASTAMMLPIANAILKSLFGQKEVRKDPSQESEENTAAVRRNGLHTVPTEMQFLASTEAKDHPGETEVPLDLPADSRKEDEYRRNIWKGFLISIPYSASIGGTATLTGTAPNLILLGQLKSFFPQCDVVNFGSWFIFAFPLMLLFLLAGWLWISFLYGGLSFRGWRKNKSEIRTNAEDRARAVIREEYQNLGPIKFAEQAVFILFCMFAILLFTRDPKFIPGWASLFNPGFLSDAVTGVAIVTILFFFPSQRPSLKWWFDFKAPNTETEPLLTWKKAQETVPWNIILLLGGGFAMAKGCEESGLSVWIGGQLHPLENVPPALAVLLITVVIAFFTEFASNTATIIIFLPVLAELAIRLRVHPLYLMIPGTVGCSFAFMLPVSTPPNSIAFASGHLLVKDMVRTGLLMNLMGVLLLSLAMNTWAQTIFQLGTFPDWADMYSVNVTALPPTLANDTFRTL
Excerpt: as §7, §8, §9

parental HEK-293 cells = experiment: Whole cell binding experiments with [3H]-2, parental HEK-293 cells; set-up: species or system human; conditions: 75 nM
Method: Parental HEK-293 cells or HEK-293 cells expressing SLC13A5 were incubated with [^3H]-2 at 75 nM. See supplemental methods for additional details. […]
were plated, and incubated for 48 hours. Following the incubation, NaDC1 and NaDC3 assays were executed identical to the procedure for NaCT.
Binding experiments with [3H]-2. Parental HEK-293 cells or cells overexpressing SLC13A5 were incubated in the media with 75 nM of [3H]-2. These cells were also incubated with either 0, […]
was monitored for 2-hours. The uptake of radioactivity was monitored on Perkin Elmer Microbeta plate reader. In experiments in which cold 2 was added to the media, after 2-hours, the cells were washed 3x with PBS, and then in fresh media 100 μM cold 2 was added for 2-hours and the disappearance of radioactivity was monitored using a Perkin Elmer Microbeta […]
Intra- and extracellular concentrations of compound in cellular assays. kpuu values were determined by measuring total cell and media concentrations corrected for their respective fraction unbound. Detailed methods to determine intra- and extracellular concentrations of […]
Crystallization and X-ray analysis of (S)-2-(4-(tert-butyl)phenethyl)-2-hydroxysuccinic […]
Crystallization conditions. Ethyl acetate (50 mL) was added to (S)-2-(4-(tert-butyl)phenethyl)- 2-hydroxysuccinic acid (3) ([…], 46.2 mmol). The suspension turned to a solution upon heating. […]

T1 sequence (Q86YT5 whole entry): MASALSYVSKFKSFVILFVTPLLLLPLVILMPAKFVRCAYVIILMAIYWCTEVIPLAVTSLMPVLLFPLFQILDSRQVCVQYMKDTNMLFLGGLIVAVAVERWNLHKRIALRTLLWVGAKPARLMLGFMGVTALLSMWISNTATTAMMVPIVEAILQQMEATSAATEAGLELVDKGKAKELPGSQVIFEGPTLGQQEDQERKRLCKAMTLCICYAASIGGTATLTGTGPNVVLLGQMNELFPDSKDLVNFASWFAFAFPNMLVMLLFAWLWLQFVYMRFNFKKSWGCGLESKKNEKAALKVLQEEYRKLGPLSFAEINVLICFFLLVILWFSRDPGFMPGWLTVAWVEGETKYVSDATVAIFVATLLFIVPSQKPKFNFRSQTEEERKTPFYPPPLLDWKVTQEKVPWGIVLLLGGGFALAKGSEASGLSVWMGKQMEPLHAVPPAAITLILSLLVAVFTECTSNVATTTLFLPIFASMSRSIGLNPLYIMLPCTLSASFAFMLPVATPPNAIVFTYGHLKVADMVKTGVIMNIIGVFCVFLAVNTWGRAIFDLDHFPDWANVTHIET
Sequence of NaCT (SLC13A5) (Q86YT5 whole entry): as above

SMILES: CC(C)(C)c1ccc(CCC(O)(CC(=O)O)C(=O)O)cc1 (stereo not drawn) [Compound 1]
- cellular toxicity (CellTiter-glo assessment) (HEK-293-derived cells): No cellular toxicity

SMILES: CCOC(=O)[C@@](O)(CCc1ccc(C(C)(C)C)cc1)CC(=O)O [Compound 5]
- half-life (Stability in assay media): > 120 min
- Papp [1]: 13 ×10⁻⁶ cm/s
- IC50 (NaCT (SLC13A5)): > 25 µM
- IC50 [2]: 6.76 µM
- stability in HEKNaCT cells (HEKNaCT cells [3]): stable
- half-life [4]: 29 min

SMILES: CC(C)(C)c1ccc(CC[C@](O)(CC(=O)O)C(=O)O)cc1 [Compound 3, (S)-2-(4-(tert-butyl)phenethyl)-2-hydroxysuccinic acid]
- label incorporation in TAG (human hepatocytes): not
- Kp uu at 1 h, 1 µM [5]: 0.4 ± 0.1
- effect on citrate induced increase in oxygen consumption rate (OCR) (HEKNaCT cells [6]): not
- effect on citrate suppressed extracellular acidification rate (ECAR) (HEKNaCT cells [6]; citrate): not
- Kp uu at 1 h, 1 µM [7]: 0.6 ± 0.2

SMILES: O=C(O)C[C@](O)(CCc1ccc(I)cc1)C(=O)O [Compound 4]
- IC50 (NaDC1 (SLC13A2)): 5.5 µM
- IC50 (NaDC3 (SLC13A3)): 3.2 µM

SMILES: [3H]C([3H])(c1ccc(C(C)(C)C)cc1)C([3H])([3H])[C@@](O)(CC(=O)O)C(=O)O [[^3H]-2]
- interaction with parental HEK-293 cells (parental HEK-293 cells): no significant interaction
